Results: patent publication US20140221354A1, “IMIDAZO [1,2-a]PYRIDINE COMPOUNDS FOR USE IN THERAPY” (EMBLEM Technology Transfer GmbH, priority 2011, published 2014)

Tested on: CellSensor® HRE-bla HCT-116 stably transfected reporter cell line
Assay: HIF/HRE reporter assay
Assay type: cell-based
Details: Homo sapiens, inhibition of activated HIF signaling response, hypoxic conditions induced with deferoxamine (DFO), 24 h incubation, blue/green emission ratio, read-out: Evaluation
Procedure: Inhibition of an activated HIF signaling response under chemically-induced hypoxic conditions due to compound treatment was determined using the CellSensor® HRE-bla HCT-116 stably transfected reporter cell line from Invitrogen according to the manufacturer's instructions.
Cells were maintained as described previously and seeded into 384-well, clear-bottom plates (Corning 3712) at 15000 cells/well in 32 μl assay medium (Opti-MEM [Invitrogen], 0.5% FBS, 100 U/ml penicillin, 100 μg/ml streptomycin, 0.1 mM non-essential amino acids [NEAA], 1 mM sodium pyruvate, 5 mM HEPES [pH 7.3]). Following a 2 h incubation period, compounds (4 μl) were subsequently added to the cells at 10× concentrations in 5% DMSO and incubated under normal conditions for 30 min. To induce hypoxic conditions, 4 μl of a 2 mM deferoxamine (DFO) solution was added to the cells followed by 24 h incubation under standard assay conditions (as described). Control wells included wells containing only medium (no cells) and wells treated with 0.5% DMSO instead of compound.
Prior to the readout, the Substrate Loading Solution was prepared as described in the manufacturer's protocol and 10 μl added to each well. Following a further 2 h incubation period at room temperature and in the dark, fluorescence was measured at two wavelengths (blue channel: ex. 409 nm, em. 460 nm; green channel: ex. 409 nm, em. 530 nm) on a PerkinElmer Envision HTS. For the analysis, the average signal of the cell-free wells at 460 nm and 530 nm was first subtracted from the blue and green channel data, respectively. The blue/green emission ratios were then calculated for each well, dividing the background-corrected blue emission values by the background-corrected green emission values. […] values were determined from these ratios using GraphPad Prism (Prism 5, GraphPad software, Inc.).

Structure (SMILES)	EC50 [nM]
O=[N+]([O-])c1ccc(-c2nc3ccc(-c4ccccc4)cn3c2CN2CCNCC2)cc1 [Example 1, 2-(4-nitrophenyl)-6-phenyl-3-(piperazin-1-ylmethyl)imidazo[1,2-a]pyridine]	< 500
Cc1cccc(-c2ccc3nc(-c4ccc(C#N)cc4)c(CN4CCCNCC4)n3c2)c1 [Example 24, 4-(3-((1,4-diazepan-1-yl)methyl)-6-(m-tolyl)imidazo[1,2-a]pyridin-2-yl)benzonitrile]	< 500
CN1CCN(Cc2c(-c3ccc([N+](=O)[O-])cc3)nc3ccc(-c4ccccc4)cn23)CC1 [Example 7, 3-((4-methylpiperazin-1-yl)methyl)-2-(4-nitrophenyl)-6-phenylimidazo[1,2-a]pyridine]	< 500
N#Cc1ccc(-c2nc3ccc(-c4cn[nH]c4)cn3c2CN2CCCNCC2)cc1 [Example 37, 4-(3-((1,4-diazepan-1-yl)methyl)-6-(1H-pyrazol-4-yl)imidazo[1,2-a]pyridin-2-yl)benzonitrile]	> 1000
CC(=O)N1CCN(Cc2c(-c3ccc([N+](=O)[O-])cc3)nc3ccc(-c4ccccc4)cn23)CC1 [Example 3, 1-(4-((2-(4-nitrophenyl)-6-phenylimidazo[1,2-a]pyridin-3-yl)methyl)piperazin-1-yl)ethanone]	500 to 1000
N#Cc1ccc(-c2ccc3nc(-c4ccc(C#N)cc4)c(CN4CCCNCC4)n3c2)cc1 [Example 43, 4,4′-(3-((1,4-diazepan-1-yl)methyl)imidazo[1,2-a]pyridine-2,6-diyl)dibenzonitrile]	< 500

Further lines, results first:

EC50 [nM]	Structure (SMILES)
< 500	N#Cc1ccc(-c2nc3ccc(-c4ccsc4)cn3c2CN2CCCNCC2)cc1 [Example 44, 4-(3-((1,4-diazepan-1-yl)methyl)-6-(thiophen-3-yl)imidazo[1,2-a]pyridin-2-yl)benzonitrile]
> 1000	CS(=O)(=O)c1ccc(-c2nc3ccc(-c4ccccc4)cn3c2CN2CCCNCC2)cc1 [Example 8, 3-((1,4-diazepan-1-yl)methyl)-2-(4-(methylsulfonyl)phenyl)-6-phenylimidazo[1,2-a]pyridine]
500 to 1000	c1ccc(-c2ccc3nc(-c4ccccc4)c(CN4CCCNCC4)n3c2)cc1 [Example 19, 3-((1,4-diazepan-1-yl)methyl)-2,6-diphenylimidazo[1,2-a]pyridine]
